According to patent US8722930B2, “Protease inhibitors” (Orion Corporation, priority 2009, dated 2014):
Read-outs that look alike come from different tables or passages of the source.

Columns and labels:
[1] = biological target: T1, Purified recombinant matriptase (Homo sapiens, UniProt Q9Y5Y6); test: Matriptase fluorescence-based enzymatic assay (Boc-Gln-Ala-Arg-AMC cleavage); format: biochemical
T1 sequence (Q9Y5Y6 1-855): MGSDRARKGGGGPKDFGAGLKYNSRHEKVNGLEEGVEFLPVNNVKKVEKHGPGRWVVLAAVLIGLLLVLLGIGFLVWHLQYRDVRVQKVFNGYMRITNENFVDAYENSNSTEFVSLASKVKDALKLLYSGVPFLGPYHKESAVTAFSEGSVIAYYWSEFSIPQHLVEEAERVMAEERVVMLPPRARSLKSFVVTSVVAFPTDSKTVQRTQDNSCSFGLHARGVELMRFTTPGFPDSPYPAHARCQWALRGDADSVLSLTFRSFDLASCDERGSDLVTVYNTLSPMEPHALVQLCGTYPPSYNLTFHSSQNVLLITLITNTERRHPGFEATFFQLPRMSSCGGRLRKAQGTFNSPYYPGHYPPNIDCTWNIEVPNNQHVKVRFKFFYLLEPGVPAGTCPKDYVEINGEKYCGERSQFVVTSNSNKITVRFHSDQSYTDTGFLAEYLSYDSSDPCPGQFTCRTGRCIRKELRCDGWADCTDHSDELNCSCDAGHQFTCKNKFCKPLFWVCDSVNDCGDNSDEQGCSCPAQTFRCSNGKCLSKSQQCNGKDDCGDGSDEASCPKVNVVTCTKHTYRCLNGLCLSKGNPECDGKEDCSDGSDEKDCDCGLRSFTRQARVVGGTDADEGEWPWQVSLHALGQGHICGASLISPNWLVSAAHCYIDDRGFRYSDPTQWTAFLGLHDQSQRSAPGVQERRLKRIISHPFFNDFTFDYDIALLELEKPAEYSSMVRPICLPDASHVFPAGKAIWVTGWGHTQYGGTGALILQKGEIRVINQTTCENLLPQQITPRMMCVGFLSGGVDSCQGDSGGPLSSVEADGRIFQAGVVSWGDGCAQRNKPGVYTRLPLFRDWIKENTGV
Description: (§1) Purified recombinant matriptase was used in a fluorescence-based screening assay using Gln-Ala-Arg peptide as a substrate. In this assay the cleavage of AMC from Boc-Gln-Ala-Arg-7-amido-4 methylcoumarin hydrochloride (Boc-Gln-Ala-Arg-AMC) (Sigma, USA) was monitored by measuring the increase in fluorescence intensity of AMC released upon proteolytic cleavage at 480 nm (kex=360 nm). Similarly, enzymatic assays in fluorimetric or colorimetric format for uPA, Factor Xa, thrombin, plasmin and trypsin (Sigma, USA) were established using substrates pyroGlu-Gly-Arg-pNA.HCl, Boc-Gln-Ala-Arg-AMC, CH3OCO-D-CHA-Gly-Arg-PNA.AcoH, Pyro Glu-Phe-Lys—pNA.HCl and Boc-Gln-Ala-Arg-AMC, respectively.

[2] = biological target: T2, uPA (Homo sapiens, UniProt P00749); test: uPA enzymatic assay (selectivity screening); format: biochemical
T2 construct: purchased Sigma, USA
Description: as §1

[3] = biological target: T3, Factor Xa (Homo sapiens, UniProt P00742); test: Factor Xa enzymatic assay (selectivity screening); format: biochemical
T3 construct: uPA, Factor Xa, thrombin, plasmin and trypsin (Sigma, USA); purchased Sigma, USA
Description: as §1

[4] = biological target: T4, thrombin (Homo sapiens, UniProt P00734); test: Thrombin enzymatic assay (selectivity screening); format: biochemical
T4 construct: uPA, Factor Xa, thrombin, plasmin and trypsin (Sigma, USA); purchased Sigma, USA
Description: as §1

[5] = biological target: T5, plasmin (Homo sapiens, UniProt P00747); test: Plasmin enzymatic assay (selectivity screening); format: biochemical
T5 construct: uPA, Factor Xa, thrombin, plasmin and trypsin (Sigma, USA); purchased Sigma, USA
Description: as §1

[6] = system: trypsin; test: Trypsin enzymatic assay (selectivity screening); format: biochemical; settings: % Inhibition at 5 μM
Description: as §1

[7] = system: DU145 cells; test: Soft agar colony formation assay; format: cell-based; settings: Homo sapiens, DU-145, 504 h, about three weeks, read-out: EC50 for inhibition of soft agar colony formation
Procedure: Soft agar colony formation assays were performed to measure the long-term survival and anchorage-independent growth capacity of tumor cells. DU145 cells were seeded in 0.7% nutrient agar with the test compound on an underlay of 1.4% nutrient agar in a six well plate. On the day following cell seeding, liquid cell culture medium containing the compound was added to the well to prevent the agar from drying out and was changed regularly till the completion of the experiment. The cells were allowed to form colonies for a period of about three weeks following which the colonies were stained with 0.005% solution of crystal violet in 25% methanol. The colonies were counted under a dissecting microscope.

[8] = system: DU145 cells; test: Cytotoxicity, Calcein AM assay, DU145; format: cell-based; settings: Homo sapiens, DU-145, 96 h, four days of incubation, read-out: Cell survival at 10 μM (%)
Procedure: Cytotoxicity of the compounds was tested in cell lines or primary cells using Calcein AM assay. This assay measures cell viability by quantitation of cleaved fluorescent product of a cell permeable substrate that is retained in the cytoplasm of cells with uncompromised cytoplasmic membrane integrity. The cells were seeded into 96-well plate and allowed to adhere for a day followed by addition of compound at several different concentrations. After four days of incubation with the compound, media was removed from the cells followed by addition of PBS and addition of Calcein AM reagent at 1 μM final concentration. The cells were then allowed to incubate at 37° C. for half an hour followed by reading on the fluorimeter. Percent viability was calculated based on fluorescence value obtained at 485/520 nm with cut off at 495 nm.

[9] = system: DU145 cells; test: Migration assay in transwell chambers; format: cell-based; settings: Homo sapiens, DU-145, 24 hours
Procedure: Migration assays were performed to determine the effect of matriptase inhibitors on cell motility. Cells were seeded with 10 μM test compound into transwell chambers and allowed to migrate for 24 hours using a combination of 10% FBS and 5 μg/ml fibronectin as chemoattractant.

[10] = system: DU145 cells; test: Cell invasion assay (matrigel transwell); format: cell-based; settings: Homo sapiens, DU-145, 48 hours
Procedure: Cell invasion assays were done for quantitating the degree to which invasive cells penetrate a barrier essentially as in migration assay but with the use of matrigel consisting of basement membrane components in the transwell inserts and incubating for 48 hours. The barrier used was matrigel. This was followed by fixing and staining of the transwell insert with 0.5% crystal violet in 25% methanol in order to visualize cells migrated.

[11] = system: DU145 tumors; test: DU145 xenograft model; format: in vivo; settings: for Tumor growth inhibition (%): DU145 model, 15 days
Procedure: (§2) In order to determine the in vivo efficacy, xenograft models were established by injecting 5×10^6 DU145 cells with matrigel or 5×10^6 PC3 cells without matrigel subcutaneously. Once the tumors reached palpable size (˜80 mm3), compound of Example 27 was administered in a vehicle comprising of 2% ethanol, 10% hydroxyl cyclodextrin in 0.9% saline. The compound of Example 27 was dosed subcutaneously to animals with DU145 tumors at 1.5, 5 and 15 mg/kg for 15 days. In the PC3 xenograft study, compound of Example 27 was administered at 0.5, 1.5, 5.0 and 15.0 mg/kg daily.

[12] = system: PC3 cells; test: PC3 xenograft model; format: in vivo; settings: for Tumor growth inhibition (%): PC3 model, 21 days
Procedure: as §2

[13] = Maximum tolerated dose (MTD) study; format: in vivo; settings: 14 days, male athymic mice
Procedure: An MTD study was performed for the compound of Example 27. […] The compound was administered at 1, 3, 10 and 30 mg/kg once daily in male athymic mice via subcutaneous route in 5 mice each. […]

[14] = Table 1, read-out: Matriptase Inhibition IC50
[15] = Table 2, read-out: Matriptase IC50
[16] = 1, 3, 10 and 30 mg/kg once daily subcutaneous

T3 sequence (P00742 235-488 limits assumed): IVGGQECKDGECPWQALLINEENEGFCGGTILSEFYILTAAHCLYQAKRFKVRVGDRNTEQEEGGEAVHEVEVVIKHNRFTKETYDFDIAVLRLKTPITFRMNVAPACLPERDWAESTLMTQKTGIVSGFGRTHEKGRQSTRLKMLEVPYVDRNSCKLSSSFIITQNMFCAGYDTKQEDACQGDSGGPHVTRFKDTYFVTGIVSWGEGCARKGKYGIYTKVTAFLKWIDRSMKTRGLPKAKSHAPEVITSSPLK
T3 sequence (P00742 41-179 partner limits assumed): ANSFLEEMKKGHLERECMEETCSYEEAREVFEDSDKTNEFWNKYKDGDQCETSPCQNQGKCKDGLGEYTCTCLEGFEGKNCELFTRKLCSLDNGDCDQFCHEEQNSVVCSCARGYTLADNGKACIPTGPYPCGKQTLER
T5 sequence (P00747 581-810 limits assumed, species assumed): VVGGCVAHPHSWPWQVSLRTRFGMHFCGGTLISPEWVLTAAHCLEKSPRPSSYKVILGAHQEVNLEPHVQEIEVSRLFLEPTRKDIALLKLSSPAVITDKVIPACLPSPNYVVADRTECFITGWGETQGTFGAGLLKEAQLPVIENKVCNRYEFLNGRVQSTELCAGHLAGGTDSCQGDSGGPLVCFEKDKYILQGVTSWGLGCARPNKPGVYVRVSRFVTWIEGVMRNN
T5 sequence (P00747 97-580 partner limits assumed, species assumed): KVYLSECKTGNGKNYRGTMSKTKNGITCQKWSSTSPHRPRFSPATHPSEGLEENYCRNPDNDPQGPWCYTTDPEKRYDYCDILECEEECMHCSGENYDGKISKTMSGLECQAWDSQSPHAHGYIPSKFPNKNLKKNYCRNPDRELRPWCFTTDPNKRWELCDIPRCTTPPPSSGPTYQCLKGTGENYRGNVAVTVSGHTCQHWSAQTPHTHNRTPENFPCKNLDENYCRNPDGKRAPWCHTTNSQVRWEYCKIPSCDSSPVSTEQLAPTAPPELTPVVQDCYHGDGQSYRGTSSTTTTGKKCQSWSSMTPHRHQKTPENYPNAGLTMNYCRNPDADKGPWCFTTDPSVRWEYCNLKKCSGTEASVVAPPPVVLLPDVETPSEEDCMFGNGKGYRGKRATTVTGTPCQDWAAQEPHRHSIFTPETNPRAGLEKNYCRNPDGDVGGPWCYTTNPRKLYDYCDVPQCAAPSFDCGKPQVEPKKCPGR

With `N=C(N)c1ccc(Oc2cc(C(=O)NC3CCC(N)CC3)cc(Oc3ccc(C(=N)N)cc3)n2)cc1` (centres unmarked) [Example 13, N-(4-Amino-cyclohexyl)-2,6-bis-(4-carbamimidoyl-phenoxy)-isonicotinamide] the IC50 [1] was 20 nM, the inhibition at 5 µM [2] was 13% and the inhibition at 5 µM [3] was 84%. The inhibition at 5 µM [4] was 28%, the inhibition at 5 µM [5] was 33% and the “Trypsin Inhibition (%)” value [6] was 92%. The EC50 [7] was 500 nM.

For `[H]/N=C(\N)c1ccc(Oc2cc(Oc3ccc(/C(N)=N/[H])cc3)cc(C(=O)NC3CCC(N)CC3)c2)cc1` (centres unmarked) [Example 27, N-(4-Amino-cyclohexyl)-3,5-bis-(4-carbamimidoyl-phenoxy)-benzamide], the IC50 [1, 14] was 17 nM, the IC50 [1, 15] was 17 nM and the inhibition at 5 µM [2] was 14%. The inhibition at 5 µM [3] was 83%, the inhibition at 5 µM [4] was 41% and the inhibition at 5 µM [5] was 33%. The “Trypsin Inhibition (%)” value [6] was 61%, the viability at 10 µM [8] was 100% and the inhibition at 10 µM [9] was 88%. The inhibition at 10 µM [10] was 79%, the EC50 [7] was 200 nM and the “Tumor growth inhibition (%)” value ([11]; 1.5 mg/kg subcutaneously) was 61.2%. The “Tumor growth inhibition (%)” value ([11]; 5 mg/kg subcutaneously) was 84.5%, the “Tumor growth inhibition (%)” value ([11]; 15 mg/kg subcutaneously) was 75% and the “Reduction in tumor volume (in words)” value ([11]; DU145 xenograft study) was “significant reduction in tumor volume”. For the same compound, the “Tumor growth inhibition (%)” value ([12]; 0.5 mg/kg daily) was 14%, the “Tumor growth inhibition (%)” value ([12]; 1.5 mg/kg daily) was 44% and the “Tumor growth inhibition (%)” value ([12]; 5 mg/kg daily) was 65%. For the same compound, the “Tumor growth inhibition (%)” value ([12]; 15 mg/kg daily) was 62%, the “Inhibition of tumor growth (in words)” value ([12]; PC3 xenograft study) was “significant and dose-dependent inhibition of tumor growth” and the Body weight reduction [13, 16] was “less than 2%”. For the same compound, the Clinical signs [13, 16] was “no gross changes in clinical signs”, the Mortality [13, 16] was “did not show any mortality” and the Tolerability ([13]; doses up to 30 mg/kg once daily subcutaneous) was “well tolerated”.

Compound `N=C(N)c1ccc(Oc2cc(OCc3cccc(CN)c3)cc(C(=O)NC3CCC(N)CC3)c2)cc1` (centres unmarked) [Example 47, N-(4-Aminocyclohexyl)-3-(3-aminomethylbenzyloxy)-5-(4-carbamimidoylphenoxy)benzamide] has an IC50 [1, 14] of 38 nM, an IC50 [1, 15] of 38 nM and an inhibition at 5 µM [2] of -1%. For the same compound, the inhibition at 5 µM [3] was 71%, the inhibition at 5 µM [4] was 3% and the inhibition at 5 µM [5] was 18%. For the same compound, the viability at 10 µM [8] was 100%, the inhibition at 10 µM [9] was 39% and the inhibition at 10 µM [10] was 63%. The EC50 [7] was 900 nM.

For `N=C(N)c1ccc(Oc2cc(OCc3ccc(Br)cc3)cc(C(=O)NC3CCC(N)CC3)c2)cc1` (centres unmarked) [Example 51, N-(4-Aminocyclohexyl)-3-(4-bromobenzyloxy)-5-(4-carbamimidoylphenoxy)benzamide], the IC50 [1, 14] was 379 nM, the IC50 [1, 15] was 122 nM and the inhibition at 5 µM [2] was 23%. It also gave an inhibition at 5 µM [3] of 52%, an inhibition at 5 µM [4] of 41% and an inhibition at 5 µM [5] of 25%. It also gave a viability at 10 µM [8] of 93%, an inhibition at 10 µM [9] of -4% and an inhibition at 10 µM [10] of 61%. It also gave an EC50 [7] of 700 nM.

Work on `N=C(N)c1ccc(COc2cc(Oc3ccc(C(=N)N)cc3)cc(C(=O)N3CCC(CCN)CC3)c2)cc1` [Example 58, 2-{1-[3-(4-carbamimidoyl-benzyloxy)-5-(4-carbamimidoyl-phenoxy)benzoyl]-piperidin-4-yl}ethylamine] yielded an IC50 [1, 14] of 35 nM, an IC50 [1, 15] of 35 nM and an inhibition at 5 µM [2] of 7%. For the same compound, the inhibition at 5 µM [3] was 73%, the inhibition at 5 µM [4] was 70% and the inhibition at 5 µM [5] was 42%. It also gave a viability at 10 µM [8] of 100%, an inhibition at 10 µM [9] of 63% and an inhibition at 10 µM [10] of 91%. It also gave an EC50 [7] of 100 nM.

`Cc1cc(Oc2cc(Oc3ccc(C(=N)N)cc3)cc(C(=O)NC3CCC(N)CC3)c2)ccc1C(=N)N` (centres unmarked) [Example 74, N-(4-Aminocyclohexyl)-3-(4-carbamimidoyl-3-methylphenoxy)-5-(4-carbamimidoylphenoxy)benzamide] showed an IC50 [1, 14] of 13.2 nM, an IC50 [1, 15] of 13 nM and an inhibition at 5 µM [2] of 11%. It also gave an inhibition at 5 µM [3] of 86%, an inhibition at 5 µM [4] of 33% and an inhibition at 5 µM [5] of 10%. The “Trypsin Inhibition (%)” value [6] was 28%, the viability at 10 µM [8] was 95% and the inhibition at 10 µM [9] was 18%. It also gave an inhibition at 10 µM [10] of 45%.

With `N=C(N)c1cccc(COc2cc(NC(=O)C3CCC(N)CC3)cc(OCc3cccc(C(=N)N)c3)c2)c1` (centres unmarked) [Example 119, 4-Amino-cyclohexanecarboxylic acid[3,5-bis-(3-carbamimidoyl-benzyloxy)-phenyl]-amide] the IC50 [1, 14] was 7 nM, the “uPA Inhibition (%)” value ([2]; % Inhibition at 5 μM) was 14% and the “Factor Xa Inhibition (%)” value ([3]; % Inhibition at 5 μM) was 97%. For the same compound, the “Thrombin Inhibition (%)” value ([4]; % Inhibition at 5 μM) was 47%, the “Plasmin Inhibition (%)” value ([5]; % Inhibition at 5 μM) was 30% and the “Trypsin Inhibition (%)” value [6] was 77%.
